This is an account of results in patent publication USRE39616E1, “Aminoindan derivatives” (priority 1996, dated 2007).

Structures can show the parent of a compound that is named as a salt. Where two headings read alike, the source gives them in different places.

As a reminder, the IC50 is the midpoint of a concentration-inhibition curve.

The target in series [1] is T1, MAO-A (Rattus norvegicus, UniProt P21396).
T1 sequence (P21396 1-526): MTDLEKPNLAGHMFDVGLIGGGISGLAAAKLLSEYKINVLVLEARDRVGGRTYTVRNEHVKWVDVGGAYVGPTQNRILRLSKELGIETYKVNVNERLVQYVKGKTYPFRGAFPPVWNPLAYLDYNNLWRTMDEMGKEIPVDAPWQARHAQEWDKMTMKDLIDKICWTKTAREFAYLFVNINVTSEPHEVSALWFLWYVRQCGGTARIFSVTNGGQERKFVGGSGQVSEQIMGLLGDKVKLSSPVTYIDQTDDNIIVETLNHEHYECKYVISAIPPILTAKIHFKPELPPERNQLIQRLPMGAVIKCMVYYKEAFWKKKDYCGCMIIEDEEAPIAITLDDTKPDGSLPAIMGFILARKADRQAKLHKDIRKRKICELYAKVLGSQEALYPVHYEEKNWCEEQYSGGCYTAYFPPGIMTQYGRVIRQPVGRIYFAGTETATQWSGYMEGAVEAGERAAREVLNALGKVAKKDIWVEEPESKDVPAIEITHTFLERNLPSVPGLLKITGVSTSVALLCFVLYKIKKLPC
The series is described as follows: Inhibition of MAO activity in vitro, 5-HT as substrate. In kind it is biochemical. Also on record: The MAO enzyme source was a homogenate of rat brain in 0.3M sucrose; from tissue; host or cells: rat brain homogenate, 600 g supernatant. Here is the method: Substrate concentrations used were 50 μM (PEA) and 1 mM (5-HT).

The subject of series [2] is mice, hypobaric hypoxic model. Briefly: animal or person. In kind it is in vivo. The settings on record: Mus musculus; for response vs control in vivo at 8 mg/kg: read-out: Protection (survival time), 8 mg/kg sc, 60 min before hypoxia. From the text: A 12 liter desiccator (desiccator A) and a 2.5 liter desiccator (desiccator B) were separately connected to a vacuum pump. Desiccator B was disconnected and allowed to equilibrate with room air whilst desiccator A was evacuated to a pressure of 100 mmHg. Four male ICR albino mice (22-28 g) were placed in desiccator B. Desiccator B was then closed to room air and connected to desiccator A. The pressure inside desiccator B was monitored using a mercury manometer and at the point were the pressure in desiccator B reached 200 mmpg (usually within 14 seconds), the two desiccators were disconnected from the vacuum pump and the pump switched off. The survival time from the moment of induction of hypoxia to the time of cessation of respiration was recorded for each mouse for a maximum of 15 minutes after which time room air was reintroduced to desiccator B. Survivors were monitored for signs of lethargy or vitality.
Effect of drug treatment was assessed as the percent of the survival time of the drug treated group with respect to the saline injected or vehicle injected control group. […] The effect of each dose of test drug was determined in duplicate i.e. two groups of 4 mice.
Positive reference drugs were sodium pentobarbital at a dose of 40 mg/kg, and diazepam 10 mg/kg given 0.5 h prior to hypoxia, physostigmine 0.2 and 0.4 mg/kg and neostigmine 0.2 mg/kg given sc 30 min before hypoxia. Methyl atropine 1 mg/kg was given sc. 10 min. before physostigmine.
Test drugs were dissolved in 0.9% saline, and injected sc. in the nip of the neck at a dose in accordance with body weight, 60-90 min. before hypoxia. The volume of injection was 0.2-0.3 mL per mouse (10 mL/kg). The initial dose was about one third of the reported LD50 for acetylcholine esterase inhibition. If no protection could be obtained, the dose was further increased to the nearest non-toxic dose. In case of protection, the dose was further reduced in an attempt to locate the “protective” dose range.

A further series addresses T2, MAO-B (Mus musculus, UniProt Q8BW75).
T2 construct: from tissue; host or cells: mouse brain
T2 sequence (Q8BW75 1-520): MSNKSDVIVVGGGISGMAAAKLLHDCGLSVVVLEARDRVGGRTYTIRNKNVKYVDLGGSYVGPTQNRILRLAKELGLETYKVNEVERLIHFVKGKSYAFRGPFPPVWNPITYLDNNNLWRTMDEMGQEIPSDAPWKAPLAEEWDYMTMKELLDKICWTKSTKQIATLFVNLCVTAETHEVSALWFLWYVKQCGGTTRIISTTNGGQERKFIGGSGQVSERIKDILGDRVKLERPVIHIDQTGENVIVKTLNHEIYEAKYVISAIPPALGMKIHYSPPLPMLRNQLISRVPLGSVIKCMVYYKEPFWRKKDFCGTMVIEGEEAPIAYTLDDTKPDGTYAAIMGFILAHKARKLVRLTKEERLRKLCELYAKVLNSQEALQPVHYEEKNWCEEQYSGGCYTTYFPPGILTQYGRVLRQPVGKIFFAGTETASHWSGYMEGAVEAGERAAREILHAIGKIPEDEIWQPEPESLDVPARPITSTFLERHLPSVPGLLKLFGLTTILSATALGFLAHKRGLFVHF
The series is described as follows: Inhibition of MAO activity ex vivo (brain). In kind it is in vivo, mice. The method, boiled down: (§1)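 Male Sabra mice dosed with compound in 0.9% saline (2-3 per dose) and killed 2 h post-dose or at peak AChE-inhibition time. Brain homogenized in 0.3 M sucrose and assayed for MAO activity with 50 μM PEA (MAO-B) or 1 mM 5-HT (MAO-A) as substrate.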

The target of series [3] is T3, MAO-A (Mus musculus, UniProt Q64133).
T3 construct: from tissue; host or cells: mouse brain
T3 sequence (Q64133 1-526): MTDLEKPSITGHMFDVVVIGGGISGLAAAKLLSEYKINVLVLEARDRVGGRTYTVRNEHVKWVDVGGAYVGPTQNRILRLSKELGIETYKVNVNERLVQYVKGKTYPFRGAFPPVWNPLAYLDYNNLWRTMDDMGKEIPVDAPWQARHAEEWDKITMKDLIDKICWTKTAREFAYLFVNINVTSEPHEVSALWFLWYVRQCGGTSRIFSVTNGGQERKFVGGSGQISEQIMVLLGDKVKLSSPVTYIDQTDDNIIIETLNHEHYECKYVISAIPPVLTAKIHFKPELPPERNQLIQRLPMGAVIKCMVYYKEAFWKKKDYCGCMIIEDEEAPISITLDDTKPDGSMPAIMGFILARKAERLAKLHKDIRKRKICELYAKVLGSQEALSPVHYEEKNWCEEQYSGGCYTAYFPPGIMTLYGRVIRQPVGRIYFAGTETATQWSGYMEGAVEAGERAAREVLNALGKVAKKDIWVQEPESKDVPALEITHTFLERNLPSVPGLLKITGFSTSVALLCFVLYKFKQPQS
The series is described as follows: Inhibition of MAO activity ex vivo (brain). In kind it is in vivo, mice. An outline of the steps: as §1

The mark [4] stands for this setting: mice, within 6 hours after administration.
Where [5] appears, read: MAO-A Inhibition In vitro IC50, rat brain homogenate, 5-HT substrate.
Setting [6] is: sc, read-out: Protection (survival time), 50 mg/kg sc, 60 min before hypoxia.

On to `CN(C)C(=O)Oc1ccc2c(c1)C(N)CC2` (centres unmarked) [Compound 1], for which the “Acute Toxicity LD50 (LD)” value with mice (setting [4]) is 83.8 µmol/kg. The molecule also registered an IC50 against MAO-A [1] (setting [5]) of 75 µM. The response vs control in vivo at 2 mg/kg in series [2] (sc, read-out: Protection (survival time), 2 mg/kg sc, 60 min before hypoxia) is 120 ± 51%. Further, the response vs control in vivo at 4 mg/kg in series [2] (sc, read-out: Protection (survival time), 4 mg/kg sc, 60 min before hypoxia) stood at 470 ± 200%. In addition, in series [2] (sc), the response vs control in vivo at 8 mg/kg is 637 ± 116%. At MAO-B (mice, brain tissue), the “MAO-B Inhibition Ex vivo ED50” value is on record as >>80 μmoles/kg. Besides, the “MAO-A Inhibition Ex vivo ED50” value at MAO-A [3] (mice, brain tissue) is on record as >>80 μmoles/kg.

Consider `CCN(C)C(=O)Oc1ccc2c(c1)C(NC)CC2` (centres unmarked) [Compound 10], for which the “Acute Toxicity LD50 (LD)” value in the series on mice (setting [4]) came to 740 µmol/kg. Besides, the IC50 at MAO-A [1] (rat brain homogenate, 5-HT substrate, read-out: MAO-A Inhibition In vitro IC50) is 22 µM. Moreover, the response vs control in vivo at 10 mg/kg in series [2] (sc, read-out: Protection (survival time), 10 mg/kg sc, 90 min before hypoxia) is 304 ± 129%. Further, the response vs control in vivo at 25 mg/kg in series [2] (sc, read-out: Protection (survival time), 25 mg/kg sc, 90 min before hypoxia) was 700 ± 201%. In addition, the response vs control in vivo at 50 mg/kg in series [2] (sc, read-out: Protection (survival time), 50 mg/kg sc, 90 min before hypoxia) came out at 705 ± 101%. For the same molecule, the “MAO-B Inhibition Ex vivo ED50” value at MAO-B (mice, brain tissue) is more than 175 µmol/kg. Besides, the “MAO-A Inhibition Ex vivo ED50” value on MAO-A [3] (mice, brain tissue) is more than 175 µmol/kg.

On to `C#CCNC1CCc2ccc(OC(=O)N(C)C)cc21` (centres unmarked) [Compound 24, 6-(N,N-Dimethylcarbamyloxy)-N-propargyl aminoindan mesylate], for which, in the series on mice (mouse, in vivo), the “Acute Toxicity LD50 (LD)” value came to 179 µmol/kg. Besides, the midpoint of inhibition against MAO-A [1] (setting [5]), the IC50, lay at 850 µM. The response vs control in vivo at 21 mg/kg in series [2] (sc, read-out: Protection (survival time), 21 mg/kg sc, 60 min before hypoxia) turned out to be 269 ± 166%. Besides, the response vs control in vivo at 50 mg/kg in series [2] (setting [6]) came out at 738%. The “MAO-B Inhibition Ex vivo ED50” value at MAO-B (mice, brain tissue) came out at 100 µmol/kg. The “MAO-A Inhibition Ex vivo ED50” value at MAO-A [3] (mice, brain tissue) was more than 120 µmol/kg.

Consider `C#CCNC1CCc2ccc(OC(=O)N(C)CC)cc21` (centres unmarked) [Compound 25, 6-(N-Me, N-Etcarbamyloxy) N-propargyl aminoindan, HCl], for which the “Acute Toxicity LD50 (LD)” value in the series on mice (setting [4]) was 1400 µmol/kg. Besides, the “Therapeutic Ratio LD/AC” value with mice (mouse, in vivo) was found to be 10.8. Also, the IC50 on MAO-A [1] (MAO-A Inhibition In vitro IC50) is 270 µM. Besides, the response vs control in vivo at 25 mg/kg in series [2] (25 mg/kg sc, 60 min before hypoxia, read-out: Protection (survival time)) turned out to be 84 ± 35%. In series [2] (50 mg/kg sc, 60 min before hypoxia, read-out: Protection (survival time)), the response vs control in vivo at 50 mg/kg is 380 ± 231%. Also, in series [2] (75 mg/kg sc, 60 min before hypoxia, read-out: Protection (survival time)), the response vs control in vivo at 75 mg/kg worked out at 559 ± 225%. Moreover, the response vs control in vivo at 100 mg/kg in series [2] (100 mg/kg sc, 60 min before hypoxia, read-out: Protection (survival time)) was found to be 761 ± 91%. Besides, the “MAO-B Inhibition Ex vivo ED50” value on MAO-B (mouse, in vivo) was determined as 200 µmol/kg. Also, the “MAO-A Inhibition Ex vivo ED50” value on MAO-A [3] (mouse, in vivo) is on record as >>350 μmoles/kg.

As to `C#CCNC1CCc2cccc(OC(=O)N(C)C)c21` (centres unmarked) [Compound 27], in the series with mice (mouse, in vivo), the “Acute Toxicity LD50 (LD)” value came to 300 µmol/kg and the “Therapeutic Ratio LD/AC” value came to 10. Moreover, on MAO-A [1] (setting [5]), the IC50 was more than 1000 µM. Further, the response vs control in vivo at 3 mg/kg in series [2] (sc, read-out: Protection (survival time), 3 mg/kg sc, 60 min before hypoxia) is 287 ± 319%. The response vs control in vivo at 8 mg/kg in series [2] (sc) stood at 119 ± 45%. The response vs control in vivo at 15 mg/kg in series [2] (sc, read-out: Protection (survival time), 15 mg/kg sc, 60 min before hypoxia) came to 143 ± 56%. In addition, in series [2] (setting [6]), the response vs control in vivo at 50 mg/kg was 455 ± 23%. Further, the “MAO-B Inhibition Ex vivo ED50” value at MAO-B (mice, brain tissue) is >>160 μmoles/kg. In addition, the “MAO-A Inhibition Ex vivo ED50” value at MAO-A [3] (mice, brain tissue) was >>160 μmoles/kg.

For the molecule `C#CCN(C)C1CCc2ccc(OC(=O)N(C)C)cc21` (centres unmarked) [Compound 29], in the series on mice (mouse, in vivo), the “Acute Toxicity LD50 (LD)” value was found to be 500 µmol/kg and the “Therapeutic Ratio LD/AC” value is listed as 9.3. Further, at MAO-A [1] (setting [5]), the IC50 came to 40 µM. In series [2] (sc, read-out: Protection (survival time), 25 mg/kg sc, 30 min before hypoxia), the response vs control in vivo at 25 mg/kg turned out to be 273 ± 183%. Also, the response vs control in vivo at 25 mg/kg in series [2] (sc, read-out: Protection (survival time), 25 mg/kg sc, 60 min before hypoxia) turned out to be 131 ± 56%. Further, in series [2] (sc, read-out: Protection (survival time), 53 mg/kg sc, 60 min before hypoxia), the response vs control in vivo at 53 mg/kg was determined as 638 ± 10%. The response vs control in vivo at 77 mg/kg in series [2] (sc, read-out: Protection (survival time), 77 mg/kg sc, 60 min before hypoxia) was 508 ± 206%. Further, the “MAO-B Inhibition Ex vivo ED50” value on MAO-B (mice, brain tissue) was 30 µmol/kg. The “MAO-A Inhibition Ex vivo ED50” value at MAO-A [3] (mice, brain tissue) came to 50 µmol/kg.
